“And” between values parts separate entries of the source, which are not always exact repeats. Equal values may be shown once.
Tests used:
Assay type in all cases: cell-based
[1] = tested on: H-9 cells; experiment: Cytoxicity on H-9 cells (drug inhibition, cell count); details: for H-9 Mean (drug inhibition): Table 4 summary; for % Inhibition Mean / Cells (×10^4) Mean / % Inhibition / Cells (×10^4): Exp. Dec. 05 to Dec. 09, 2005; for % Inhibition / Cells (×10^4): single replicates
Text: (§1) The purified and identified analogs were subjected to in vitro biological testing. […] These three congeners were further evaluated in H9 and PC3 cells. AZT was employed as a positive control in all of these experiments.

[2] = tested on: PC-3 cells; experiment: Cytoxicity on PC-3 cells (drug inhibition, cell count); details: for % Inhibition Mean / Cells (×10^4) Mean / % Inhibition / Cells (×10^4): Exp. Nov. 11 to Nov. 17, 2005; for % Inhibition / Cells (×10^4): single replicates
Text: The purified and identified analogs were subjected to in vitro biological testing.

[3] = tested on: MCF-7 cells; experiment: Cytoxicity on MCF-7 cells (drug inhibition, cell count); design: Drug Inhibition on MCF-7 Cells / MCF-7 Mean (drug inhibition) / Drug inhibition on MCF-7 Cells Mean: unit not given here; details: MCF-7 cells; for MCF-7 Mean (drug inhibition): Table 13 summary part; for Drug inhibition on MCF-7 Cells Mean: Table 14 summary part
Text: as §1

[4] = 1 μg/ml, mean, Exp. Nov. 14 to Nov. 18, 2005
[5] = 1 μg/ml, mean, Exp. Sep. 08 to Sep. 12, 2005
[6] = 1 μg/ml, mean, Exp. Sep. 12 to Sep. 16, 2005
[7] = 1 μg/ml, mean, Exp. Sep. 26 to Sep. 30, 2005
[8] = 1 μg/ml, single replicates, Exp. Nov. 14 to Nov. 18, 2005
[9] = 1 μg/ml, single replicates, Exp. Sep. 08 to Sep. 12, 2005
[10] = 1 μg/ml, single replicates, Exp. Sep. 12 to Sep. 16, 2005
[11] = 1 μg/ml, single replicates, Exp. Sep. 26 to Sep. 30, 2005
[12] = 5 μg/ml, mean, Exp. Nov. 14 to Nov. 18, 2005
[13] = 5 μg/ml, mean, Exp. Sep. 08 to Sep. 12, 2005
[14] = 5 μg/ml, mean, Exp. Sep. 12 to Sep. 16, 2005
[15] = 5 μg/ml, mean, Exp. Sep. 26 to Sep. 30, 2005
[16] = 5 μg/ml, single replicates, Exp. Nov. 14 to Nov. 18, 2005
[17] = 5 μg/ml, single replicates, Exp. Sep. 08 to Sep. 12, 2005
[18] = 5 μg/ml, single replicates, Exp. Sep. 12 to Sep. 16, 2005
[19] = 5 μg/ml, single replicates, Exp. Sep. 26 to Sep. 30, 2005
[20] = 10 μg/ml, mean, Exp. Nov. 14 to Nov. 18, 2005
[21] = 10 μg/ml, mean, Exp. Sep. 08 to Sep. 12, 2005
[22] = 10 μg/ml, mean, Exp. Sep. 12 to Sep. 16, 2005
[23] = 10 μg/ml, mean, Exp. Sep. 26 to Sep. 30, 2005
[24] = 10 μg/ml, single replicates, Exp. Nov. 14 to Nov. 18, 2005
[25] = 10 μg/ml, single replicates, Exp. Sep. 08 to Sep. 12, 2005
[26] = 10 μg/ml, single replicates, Exp. Sep. 12 to Sep. 16, 2005
[27] = 10 μg/ml, single replicates, Exp. Sep. 26 to Sep. 30, 2005

Cc1cn([C@H]2C[C@H](N=[N+]=[N-])[C@@H](CO)O2)c(=O)[nH]c1=O [AZT, reference compound]
H-9 Mean (drug inhibition) ([1]; 1 μg/ml): 18.74 | % Inhibition Mean ([1]; 1 μg/ml): 18.74% | Cells (×10^4) Mean ([1]; 1 μg/ml): 40.83 ×10^4 | % Inhibition ([1]; 1 μg/ml): 17.91% and 25.37% and 12.94% | Cells (×10^4) ([1]; 1 μg/ml): 41.3 ×10^4 and 37.5 ×10^4 and 43.8 ×10^4 | H-9 Mean (drug inhibition) ([1]; 5 μg/ml): 38.47 | % Inhibition Mean ([1]; 5 μg/ml): 38.47% | Cells (×10^4) Mean ([1]; 5 μg/ml): 30.92 ×10^4 | % Inhibition ([1]; 5 μg/ml): 39.30% and 40.30% and 35.82% | Cells (×10^4) ([1]; 5 μg/ml): 30.5 ×10^4 and 30.0 ×10^4 and 32.3 ×10^4 | H-9 Mean (drug inhibition) ([1]; 10 μg/ml): 49.75 | % Inhibition Mean ([1]; 10 μg/ml): 49.75% | Cells (×10^4) Mean ([1]; 10 μg/ml): 25.25 ×10^4 | % Inhibition ([1]; 10 μg/ml): 48.26% and 50.25% and 50.75% | Cells (×10^4) ([1]; 10 μg/ml): 26.0 ×10^4 and 25.0 ×10^4 and 24.8 ×10^4 | Drug Inhibition on PC-3 cells ([2]; 1 μg/ml, Table 7): 17.27 | Drug Inhibition on PC-3 cells ([2]; 1 μg/ml, Table 10): 13.69 | % Inhibition Mean ([2]; 1 μg/ml): 13.69% | Cells (×10^4) Mean ([2]; 1 μg/ml): 84.58 ×10^4 | % Inhibition ([2]; 1 μg/ml): 14.29% and 12.76% and 14.03% | Cells (×10^4) ([2]; 1 μg/ml): 84.0 ×10^4 and 85.5 ×10^4 and 84.3 ×10^4 | Drug Inhibition on PC-3 cells ([2]; 5 μg/ml, Table 7): 43.23 | Cells (×10^4) Mean ([2]; 5 μg/ml): 17.33 ×10^4 | Cells (×10^4) ([2]; 5 μg/ml): 70.5 ×10^4 and 72.3 ×10^4 and 71.3 ×10^4 | Drug Inhibition on PC-3 cells ([2]; 10 μg/ml, Table 7): 59.67 | Drug Inhibition on PC-3 cells ([2]; 10 μg/ml, Table 10): 37.16 | % Inhibition Mean ([2]; 10 μg/ml): 37.16% | Cells (×10^4) Mean ([2]; 10 μg/ml): 61.58 ×10^4 | % Inhibition ([2]; 10 μg/ml): 37.24% and 37.50% and 36.73% | Cells (×10^4) ([2]; 10 μg/ml): 61.5 ×10^4 and 61.3 ×10^4 and 62.0 ×10^4 | Drug Inhibition on MCF-7 Cells ([3]; 1 μg/ml, Table 8 summary): 6.92 | Drug Inhibition on MCF-7 Cells ([3]; 1 μg/ml, Table 12 summary): 26.55 | MCF-7 Mean (drug inhibition) ([3]; 1 μg/ml): 25.77 | Drug inhibition on MCF-7 Cells Mean ([3]; 1 μg/ml): 21.53 | % Inhibition Mean [3, 4]: 6.92% | Cells (×10^4) Mean [3, 4]: 53.83 ×10^4 | % Inhibition Mean [3, 5]: 25.77% | Cells (×10^4) Mean [3, 5]: 52.33 ×10^4 | % Inhibition Mean [3, 6]: 21.53% | Cells (x10^4) Mean [3, 6]: 45.25 x10^4 | % Inhibition Mean [3, 7]: 26.55% | Cells (×10^4) Mean [3, 7]: 36.42 ×10^4 | % Inhibition [3, 8]: 8.36% and 4.47% and 7.93% | Cells (×10^4) [3, 8]: 53.0 ×10^4 and 55.3 ×10^4 and 53.3 ×10^4 | % Inhibition [3, 9]: 27.66% and 23.76% and 25.89% | Cells (×10^4) [3, 9]: 51.0 ×10^4 and 53.8 ×10^4 and 52.3 ×10^4 | % Inhibition [3, 10]: 22.83% and 20.23% and 21.53% | Cells (x10^4) [3, 10]: 44.5 x10^4 and 46.0 x10^4 and 45.3 x10^4 | % Inhibition [3, 11]: 28.40% and 25.88% and 25.38% | Cells (×10^4) [3, 11]: 35.5 ×10^4 and 36.8 ×10^4 and 37.0 ×10^4 | Drug Inhibition on MCF-7 Cells ([3]; 5 μg/ml, Table 8 summary): 38.62 | Drug Inhibition on MCF-7 Cells ([3]; 5 μg/ml, Table 12 summary): 46.86 | MCF-7 Mean (drug inhibition) ([3]; 5 μg/ml): 39.36 | Drug inhibition on MCF-7 Cells Mean ([3]; 5 μg/ml): 50.43 | % Inhibition Mean [3, 12]: 38.62% | Cells (×10^4) Mean [3, 12]: 35.50 ×10^4 | % Inhibition Mean [3, 13]: 39.36% | Cells (×10^4) Mean [3, 13]: 42.75 ×10^4 | % Inhibition Mean [3, 14]: 50.43% | Cells (x10^4) Mean [3, 14]: 28.58 x10^4 | % Inhibition Mean [3, 15]: 46.86% | Cells (×10^4) Mean [3, 15]: 26.35 ×10^4 | % Inhibition [3, 16]: 39.91% and 40.35% and 35.59% | Cells (×10^4) [3, 16]: 34.8 ×10^4 and 34.5 ×10^4 and 37.3 ×10^4 | % Inhibition [3, 17]: 40.07% and 37.94% | Cells (×10^4) [3, 17]: 42.3 ×10^4 (2×) and 43.8 ×10^4 | % Inhibition [3, 18]: 47.98% and 51.88% and 51.45% | Cells (x10^4) [3, 18]: 30.0 x10^4 and 27.8 x10^4 and 28.0 x10^4 | % Inhibition [3, 19]: 49.98% and 45.04% and 45.55% | Cells (×10^4) [3, 19]: 24.8 ×10^4 and 27.3 ×10^4 and 27.0 ×10^4 | Drug Inhibition on MCF-7 Cells ([3]; 10 μg/ml, Table 8 summary): 61.1 | Drug Inhibition on MCF-7 Cells ([3]; 10 μg/ml, Table 12 summary): 65.21 | MCF-7 Mean (drug inhibition) ([3]; 10 μg/ml): 57.45 | Drug inhibition on MCF-7 Cells Mean ([3]; 10 μg/ml): 65.03 | % Inhibition Mean [3, 20]: 61.10% | Cells (×10^4) Mean [3, 20]: 22.50 ×10^4 | % Inhibition Mean [3, 21]: 57.45% | Cells (×10^4) Mean [3, 21]: 30.00 ×10^4 | % Inhibition Mean [3, 22]: 65.03% | Cells (x10^4) Mean [3, 22]: 20.17 x10^4 | % Inhibition Mean [3, 23]: 65.21% | Cells (×10^4) Mean [3, 23]: 17.25 ×10^4 | % Inhibition [3, 24]: 61.53% and 60.23% | Cells (×10^4) [3, 24]: 22.3 ×10^4 (2×) and 23.0 ×10^4 | % Inhibition [3, 25]: 57.45% | Cells (×10^4) [3, 25]: 30.0 ×10^4 | % Inhibition [3, 26]: 69.65% and 62.72% | Cells (x10^4) [3, 26]: 17.5 x10^4 and 21.5 x10^4 (2×) | % Inhibition [3, 27]: 65.21% and 63.19% and 67.23% | Cells (×10^4) [3, 27]: 17.3 ×10^4 and 18.3 ×10^4 and 16.3 ×10^4 | Cells (×10^4) Mean ([3]; drug 1 μg/ml, mean of replicates): 43.08 ×10^4 | % Inhibition Mean ([3]; drug 1 μg/ml, mean of replicates, vs 2% DMSO): 15.38% | Cells (×10^4) ([3]; drug 1 μg/ml, single replicate count): 43.3 ×10^4 (2×) and 42.8 ×10^4 | % Inhibition ([3]; drug 1 μg/ml, single replicate, vs 2% DMSO): 15.06% and 16.04% | Cells (×10^4) Mean ([3]; drug 5 μg/ml, mean of replicates): 32.08 ×10^4 | % Inhibition Mean ([3]; drug 5 μg/ml, mean of replicates, vs 2% DMSO): 36.99% | Cells (×10^4) ([3]; drug 5 μg/ml, single replicate count): 31.5 ×10^4 and 32.3 ×10^4 and 32.5 ×10^4 | % Inhibition ([3]; drug 5 μg/ml, single replicate, vs 2% DMSO): 38.13% and 36.66% and 36.17% | Cells (×10^4) Mean ([3]; drug 10 μg/ml, mean of replicates): 24.08 ×10^4 | % Inhibition Mean ([3]; drug 10 μg/ml, mean of replicates, vs 2% DMSO): 52.7% | Cells (×10^4) ([3]; drug 10 μg/ml, single replicate count): 22.0 ×10^4 and 25.5 ×10^4 and 24.8 ×10^4 | % Inhibition ([3]; drug 10 μg/ml, single replicate, vs 2% DMSO): 56.79% and 49.92% and 51.39%
